# Measured values reported in USRE47689E1, “Compounds for treating spinal muscular atrophy” (PTC Therapeutics, Inc., priority 2011, dated 2019).
# Like-named read-outs stand apart in the source and are kept apart here.
# Legend:
# [1] = system: SMN2 minigene (full length SMN2 minigene mRNA containing SMN2 exon 7); test: SMN2 minigene mRNA splicing RT-qPCR assay in cultured cells; type: cell-based, human; details: Homo sapiens, HEK293-H, read-out: EC1.5x for production of full length SMN2 mRNA
# How it was run: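 Read-out: full-length (exon 7-included) SMN2 minigene mRNA by multiplex RT-qPCR with GAPDH, efficiency-corrected (1+E)^−Ct, GAPDH-normalized and divided by vehicle. Stably transfected HEK293H cells, 24 h compound exposure, duplicates per concentration. Value is EC1.5x, reported as star ranges.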
# Smn protein = Smn protein assay in cultured cells (SMN HTRF); type: cell-based, human; details: 48 hours; for maximum fold (Fold) increase of Smn protein: SMA patient fibroblast cells, 7-point concentration data, fold increase relative to vehicle control (SMN HTRF); for EC1.5x (concentration giving 1.5-fold Smn protein increase): SMA Type 1 patient fibroblast cells (GM03813), 7-point concentration curve, SMN HTRF, concentration producing 1.5 times Smn protein vs DMSO vehicle control, read-out: EC1.5x for Smn protein expression
# How it was run: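 Lysates in RIPA with protease inhibitors are incubated overnight at room temperature with HTRF anti-SMN antibodies. EC1.5x is derived from fold increase in ΔF over vehicle.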
# [2] = HEK293H cells stably transfected with SMN2-A minigene, 24 hours, 7-point concentration curve, 1.5-fold relative to vehicle-treated cells
SMILES,EC (1.5-fold) ([1]; 24 h),melting point,maximum fold (Fold) increase of Smn protein (Smn protein),"EC (1.5-fold) [1, 2]",EC1.5x (concentration giving 1.5-fold Smn protein increase) (Smn protein)
"Cc1ccc(-c2cc3ccc(N4CCNCC4)cc3oc2=O)cn1 [Compound 163, 3-(6-methylpyridin-3-yl)-7-(piperazin-1-yl)-2H-chromen-2-one]",3 to 30 µM,148 to 150 °C,* (maximum fold increase of ≤1.2),,
"COc1ccc(-c2cc3ccc(N4CCNCC4)cc3oc2=O)cc1C [Compound 541, 3-(4-methoxy-3-methylphenyl)-7-(piperazin-1-yl)-2H-chromen-2-one]",,171 to 173 °C,* (maximum fold increase of ≤1.2),1 to 3 µM,
"Cc1cn2cc(-c3cc4ccc(N5CC[C@H]6CNC[C@H]65)cc4oc3=O)nc2c(C)n1 [Compound 687, 3-(6,8-dimethylimidazo[1,2-a]pyrazin-2-yl)-7-[(3aS,6aS)-hexahydropyrrolo[3,4-b]pyrrol-1(2H)-yl]-2H-chromen-2-one]",,243 to 253 °C,*** (fold increase between >1.35 and ≤1.5),< 0.1 µM,1000 to 3000 nM
"COc1cc(-c2cc3ccc(N4CCNCC4)cc3oc2=O)ccc1F [Compound 576, 3-(4-fluoro-3-methoxyphenyl)-7-(piperazin-1-yl)-2H-chromen-2-one]",,153 to 155 °C,* (maximum fold increase of ≤1.2),1 to 3 µM,
"C[C@@H]1CN(c2ccc3cc(-c4nc5c(F)cccc5o4)c(=O)oc3c2)C[C@H](C)N1 [Compound 39, 7-[(3R,5S)-3,5-dimethylpiperazin-1-yl]-3-(4-fluoro-1,3-benzoxazol-2-yl)-2H-chromen-2-one]",,242 to 243 °C,*** (fold increase between >1.35 and ≤1.5),0.3 to 1 µM,3000 to 10000 nM
"CCOc1cccc(-c2cc3ccc(N4CCN(C)CC4)cc3oc2=O)n1 [Compound 381, 3-(6-ethoxypyridin-2-yl)-7-(4-methylpiperazin-1-yl)-2H-chromen-2-one]",,170 to 172 °C,* (maximum fold increase of ≤1.2),1 to 3 µM,
"Cc1cn2cc(-c3cc4ccc(N5CCC(NC(CO)CO)CC5)cc4oc3=O)nc2c(C)n1 [Compound 929, 7-{4-[(1,3-dihydroxypropan-2-yl)amino]piperidin-1-yl}-3-(6,8-dimethylimidazo[1,2-a]pyrazin-2-yl)-2H-chromen-2-one]",,251 to 256 °C,*** (fold increase between >1.35 and ≤1.5),< 0.1 µM,1000 to 3000 nM
"Cc1cn2cc(-c3cc4c(F)cc(N5CCN(C)CC5)cc4oc3=O)nc2cn1 [Compound 592, 5-fluoro-3-(6-methylimidazo[1,2-a]pyrazin-2-yl)-7-(4-methylpiperazin-1-yl)-2H-chromen-2-one]",,283 to 284 °C,***** (fold increase >1.65),< 0.1 µM,< 300 nM
"CCCN1CCN(c2ccc3cc(-c4cn5cccc(Cl)c5n4)c(=O)oc3c2)CC1 [Compound 119, 3-(8-chloroimidazo[1,2-a]pyridin-2-yl)-7-(4-propylpiperazin-1-yl)-2H-chromen-2-one]",,245 to 247 °C,** (fold increase between >1.2 and ≤1.35),0.3 to 1 µM,
"Cc1cn2cc(-c3cc4ccc(N5CCN6CCC[C@H]6C5)cc4oc3=O)cc2cn1 [Compound 643, 7-[(8aS)-hexahydropyrrolo[1,2-a]pyrazin-2(1H)-yl]-3-(3-methylpyrrolo[1,2-a]pyrazin-7-yl)-2H-chromen-2-one]",,182 to 184 °C,**** (fold increase between >1.5 and ≤1.65),< 0.1 µM,< 300 nM
"CCC1CN(c2ccc3cc(-c4cn5cc(C)nc(C)c5n4)c(=O)oc3c2)CCN1C (centres unmarked) [Compound 676, 3-(6,8-dimethylimidazo[1,2-a]pyrazin-2-yl)-7-(3-ethyl-4-methylpiperazin-1-yl)-2H-chromen-2-one]",,258 to 262 °C,***** (fold increase >1.65),< 0.1 µM,< 300 nM
"Cc1nccn2cc(-c3cc4ccc(N5CCN(C)CC5)cc4oc3=O)cc12 [Compound 557, 7-(4-methylpiperazin-1-yl)-3-(1-methylpyrrolo[1,2-a]pyrazin-7-yl)-2H-chromen-2-one]",,190 to 192 °C,*** (fold increase between >1.35 and ≤1.5),0.3 to 1 µM,
"C[C@@H]1CN(c2ccc3cc(-c4cccs4)c(=O)oc3c2)C[C@H](C)N1 [Compound 364, 7-[(3R,5S)-3,5-dimethylpiperazin-1-yl]-3-(thiophen-2-yl)-2H-chromen-2-one]",1 to 3 µM,150 to 152 °C,* (maximum fold increase of ≤1.2),,
"Cc1cc2cc(-c3cc4ccc(N5CCN[C@@H](C)C5)cc4oc3=O)oc2c(C)n1 [Compound 804, 3-(5,7-dimethylfuro[2,3-c]pyridin-2-yl)-7-[(3S)-3-methylpiperazin-1-yl]-2H-chromen-2-one]",,253 to 257 °C,***** (fold increase >1.65),< 0.1 µM,< 300 nM
"Cc1cn2cc(-c3cc4ccc(CCCNCc5ccccn5)cc4oc3=O)nc2c(C)n1 [Compound 935, 3-(6,8-dimethylimidazo[1,2-a]pyrazin-2-yl)-7-{3-[(pyridin-2-ylmethyl)amino]propyl}-2H-chromen-2-one]",,177 to 180 °C,**** (fold increase between >1.5 and ≤1.65),0.1 to 0.3 µM,300 to 1000 nM
"Cc1csc2nc(-c3cc4ccc(N5CCNCC5)cc4oc3=O)cn12 [Compound 98, 3-(3-methylimidazo[2,1-b][1,3]thiazol-6-yl)-7-(piperazin-1-yl)-2H-chromen-2-one]",,> 300 °C,*** (fold increase between >1.35 and ≤1.5),1 to 3 µM,1000 to 3000 nM
"Cc1ccc2nc(-c3cc4ccc(CNC(C)CO)cc4oc3=O)cn2c1 (centres unmarked) [Compound 251, 7-{[(1-hydroxypropan-2-yl)amino]methyl}-3-(6-methylimidazo[1,2-a]pyridin-2-yl)-2H-chromen-2-one]",,224 to 227 °C,* (maximum fold increase of ≤1.2),3 to 30 µM,
"CN1CCN(c2cc(F)c3cc(-c4cn5ccsc5n4)c(=O)oc3c2)CC1 [Compound 372, 5-fluoro-3-(imidazo[2,1-b][1,3]thiazol-6-yl)-7-(4-methylpiperazin-1-yl)-2H-chromen-2-one]",,268 to 271 °C,** (fold increase between >1.2 and ≤1.35),0.1 to 0.3 µM,
"Cc1ccc2nc(-c3cc4c(F)cc(N5CCNCC5)cc4oc3=O)cn2c1 [Cpd 162, 5-fluoro-3-(6-methylimidazo[1,2-a]pyridin-2-yl)-7-(piperazin-1-yl)-2H-chromen-2-one]",,265 to 270 °C,*** (fold increase between >1.35 and ≤1.5),0.1 to 0.3 µM,300 to 1000 nM
"Cc1ccn2cc(-c3cc4ccc(N5CCN6CCC[C@H]6C5)cc4oc3=O)nc2c1 [Compound 534, 7-[(8aS)-hexahydropyrrolo[1,2-a]pyrazin-2(1H)-yl]-3-(7-methylimidazo[1,2-a]pyridin-2-yl)-2H-chromen-2-one]",,258 to 265 °C,*** (fold increase between >1.35 and ≤1.5),1 to 3 µM,
"Cc1ccc2nc(-c3cc4cc(F)c(N5CCNCC5)cc4oc3=O)cn2c1 [Compound 158, 6-fluoro-3-(6-methylimidazo[1,2-a]pyridin-2-yl)-7-(piperazin-1-yl)-2H-chromen-2-one]",,245 to 250 °C,** (fold increase between >1.2 and ≤1.35),1 to 3 µM,
"CCc1ccn2cc(-c3cc4ccc(N5CCN(C)CC5)cc4oc3=O)nc2c1 [Compound 288, 3-(7-ethylimidazo[1,2-a]pyridin-2-yl)-7-(4-methylpiperazin-1-yl)-2H-chromen-2-one]",,203 to 211 °C,* (maximum fold increase of ≤1.2),1 to 3 µM,
"O=c1oc2cc(CO)cc(F)c2cc1-c1cn2ccsc2n1 [Compound 397, 5-fluoro-7-(hydroxymethyl)-3-(imidazo[2,1-b][1,3]thiazol-6-yl)-2H-chromen-2-one]",,278 to 282 °C,* (maximum fold increase of ≤1.2),3 to 30 µM,
"CCN1CCC(c2ccc3cc(-c4ccc5nn(C)cc5c4)c(=O)oc3c2)CC1 [Compound 863, 7-(1-ethylpiperidin-4-yl)-3-(2-methyl-2H-indazol-5-yl)-2H-chromen-2-one]",,196 to 198 °C,***** (fold increase >1.65),0.1 to 0.3 µM,300 to 1000 nM
